# Data from patent US20240150424A1, “DIRECTED CHEMICAL CONJUGATE OF GLUCAGON-LIKE PEPTIDE-2 MUTANT, AND USE THEREOF” (PEG-BIO BIOPHARM CO.,LTD.(CHONGQING), priority 2021, published 2024).
# Key:
# [1] = system: small intestine hyperplasia in minor mice; assay: Test on promoting small intestinal hyperplasia in minor Kunming mice; format: in vivo
# Procedure: Forty minor Kunming mice weighing 10 to 20 g were equally divided into […], 10 mice each group. The control group was subcutaneously administered with the placebo once a day for 9 days, the Ted group was subcutaneously administered at 1 mg/Kg once a day for 9 days, and the PF01 group and the PF04 group were subcutaneously administered at 3 mg/Kg once every three days for a total of 3 times. All experimental animals were weighed before administration. On the 10th day after administration, the body weight was weighed, blood was collected, and small intestine length and weight were determined.
# [2] = system: 5-FU-induced diarrhea and intestinal mucosa injury model; assay: Diarrhea and intestinal mucosa injury model caused by 5-FU in rats; format: in vivo, SD rats; conditions: for Number of animals with diarrhea (denominator): 10 rats each group
# Procedure: Forty adult SD rats weighing 200 to 300 g were equally divided into 4 groups, 10 rats each group. A Model group was subcutaneously administered with the placebo once a day for 9 days, a Ted group was subcutaneously administered at 1 mg/Kg once a day for 9 days, and a PF01 group and a PF04 group were subcutaneously administered at 3 mg/Kg once every three days for a total of 3 times. All rats were intraperitoneally injected with 5-FU at 50 mg/Kg once a day on the 4th day to the 6th day. Diarrhea and body weight changes in rats were recorded every day after the first administration of 5-FU. On the 10th day, body weight was weighed, blood was collected, and jejunum was taken for case sections. Diarrhea was identified based on scores, with 0 indicating no diarrhea, 1 indicating mild diarrhea with feces adhering to the anus, 2 indicating moderate diarrhea with feces adhering to the hind legs and tail, 3 indicating severe diarrhea with feces adhering to the front legs and abdomen, and 4 indicating death. In Table 6, the numerator represents the diarrhea score, and the denominator represents the number of animals with diarrhea.
# [3] = cited from earlier work
# [4] = rats; cited from earlier work
# [5] = 10th day, Ted 1 mg/Kg sc once a day for 9 days, PF01/PF04 3 mg/Kg sc once every three days, 3 times
# [6] = 24 h after the administration of 5-FU
# [7] = 48 h after the administration of 5-FU
# [8] = 72 h after the administration of 5-FU
# [9] = 96 h after the administration of 5-FU
smiles,measurement,setting,value
CC[C@H](C)[C@H](NC(=O)[C@H](Cc1ccccc1)NC(=O)[C@H](CC(=O)O)NC(=O)[C@H](CCCNC(=N)N)NC(=O)[C@H](C)NC(=O)[C@H](C)NC(=O)[C@H](CC(C)C)NC(=O)[C@H](CC(N)=O)NC(=O)[C@H](CC(=O)O)NC(=O)[C@H](CC(C)C)NC(=O)[C@@H](NC(=O)[C@@H](NC(=O)[C@H](CC(N)=O)NC(=O)[C@H](CCSC)NC(=O)[C@H](CCC(=O)O)NC(=O)[C@H](CC(=O)O)NC(=O)[C@H](CO)NC(=O)[C@H](Cc1ccccc1)NC(=O)[C@H](CO)NC(=O)CNC(=O)[C@H](CC(=O)O)NC(=O)CNC(=O)[C@@H](N)Cc1c[nH]cn1)[C@@H](C)O)[C@@H](C)CC)C(=O)N[C@@H](CC(N)=O)C(=O)N[C@@H](Cc1c[nH]c2ccccc12)C(=O)N[C@@H](CC(C)C)C(=O)N[C@H](C(=O)N[C@@H](CCC(N)=O)C(=O)N[C@H](C(=O)N[C@@H](CCCCN)C(=O)N[C@H](C(=O)N[C@H](C(=O)N[C@@H](CC(=O)O)C(=O)O)[C@@H](C)O)[C@@H](C)CC)[C@@H](C)O)[C@@H](C)CC [Teduglutide],Body weight of mice at the end of the experiment,[1]; [5],18.06 ± 0.49 g
same,Serum citrulline content,[1]; [5],14.47 µg/mL
same,Small intestine length,[1]; [5],37.4 cm
same,Small intestine weight,[1]; [5],1.75 g
same,Body weight of mice before administration,"[1]; baseline, before administration",13.32 ± 0.49 g
same,"Comparison of groups in mice body weight, serum citrulline, small intestine length and small intestine weight",[1]; text summary of Table 4,superior to the control group
same,Diarrhea score (numerator),[2]; [6],0/0
same,Number of animals with diarrhea (denominator),[2]; [6],0/0
same,Diarrhea score (numerator),[2]; [7],4/4
same,Number of animals with diarrhea (denominator),[2]; [7],4/4
same,Diarrhea score (numerator),[2]; [8],4
same,Number of animals with diarrhea (denominator),[2]; [8],3
same,Diarrhea score (numerator),[2]; [9],3/3
same,Number of animals with diarrhea (denominator),[2]; [9],3/3
same,Rank of citrulline (CIT) content between groups,"[2]; FIG. 7, before chemotherapy, 48 h and 144 h after chemotherapy",citrulline content in the PF01 group>that in the PF04 group>that in the Ted group>that in the Model group
same,"Case sections of jejunum: height of villi and number of crypt cells, rank of groups","[2]; FIG. 8, 10th day",the PF01 group>the PF04 group>the Ted group>the control group
same,Serum citrulline content 96 h after the first administration of 5-FU,"[2]; Table 5, 96 h",16.50 µg/mL
same,Serum citrulline content 48 h after the administration of 5-FU,"[2]; Table 7, 48 h",2.04 µg/mL
same,Serum citrulline content 96 h after the administration of 5-FU,"[2]; Table 7, 96 h",3.53 µg/mL
same,Serum citrulline content 144 h after the administration of 5-FU,"[2]; Table 7, 144 h",10.37 µg/mL
same,Serum citrulline content before the administration of 5-FU,"[2]; Table 7, before 5-FU",21.74 µg/mL
same,Body weight before the first administration of 5-FU,"[2]; Ted 1 mg/Kg sc daily 9 days, PF01/PF04 3 mg/Kg sc every three days x3, 5-FU 50 mg/Kg ip day 4-6",272.46 g
same,Body weight 24 h after the first administration of 5-FU,"[2]; same regimen, 24 h",274.36 g
same,Body weight 48 h after the first administration of 5-FU,"[2]; same regimen, 48 h",257.94 g
same,Body weight 72 h after the first administration of 5-FU,"[2]; same regimen, 72 h",260.95 g
same,Body weight 96 h after the first administration of 5-FU,"[2]; same regimen, 96 h",275.43 g
same,half-life in vivo in humans,[3],2 h
same,in vivo half-life in rats,[4],30 min
